We go through 19 compounds from patent US5389614A (Cassella AG, priority 1991, dated 1995).

Like-named read-outs stand apart in the source and are kept apart here.

Test [1] concerns gel-filtered human platelets. The test is described as follows: Inhibition of aggregation of gel-filtered human platelets after ADP or thrombin stimulation. It counts as cell-based. Particulars: platelet aggregation. The procedure:
(§1) The compounds are tested above all for their inhibiting action on blood platelet aggregation and the adhesion of fibrinogen to blood platelets.
(§2) Gel-filtered blood platelets from human donor blood activated with ADP or thrombin are used.
B) As a functional test, the inhibition of aggregation of gel-filtered human platelets by the compounds according to the invention after ADP or thrombin stimulation is measured. The IC50 value of the inhibition is stated.

For test [2], the target named is T1, fibrinogen receptor (glycoprotein IIb/IIIa) (Homo sapiens, UniProt P05106+P08514).
T1 construct: its receptor (glycoprotein IIb/IIIa) on intact, gel-filtered human platelets; endogenous in cells; host or cells: gel-filtered human platelets from donor blood, stimulated with ADP (10 µM)
T1 sequence (P08514 32-887 limits assumed): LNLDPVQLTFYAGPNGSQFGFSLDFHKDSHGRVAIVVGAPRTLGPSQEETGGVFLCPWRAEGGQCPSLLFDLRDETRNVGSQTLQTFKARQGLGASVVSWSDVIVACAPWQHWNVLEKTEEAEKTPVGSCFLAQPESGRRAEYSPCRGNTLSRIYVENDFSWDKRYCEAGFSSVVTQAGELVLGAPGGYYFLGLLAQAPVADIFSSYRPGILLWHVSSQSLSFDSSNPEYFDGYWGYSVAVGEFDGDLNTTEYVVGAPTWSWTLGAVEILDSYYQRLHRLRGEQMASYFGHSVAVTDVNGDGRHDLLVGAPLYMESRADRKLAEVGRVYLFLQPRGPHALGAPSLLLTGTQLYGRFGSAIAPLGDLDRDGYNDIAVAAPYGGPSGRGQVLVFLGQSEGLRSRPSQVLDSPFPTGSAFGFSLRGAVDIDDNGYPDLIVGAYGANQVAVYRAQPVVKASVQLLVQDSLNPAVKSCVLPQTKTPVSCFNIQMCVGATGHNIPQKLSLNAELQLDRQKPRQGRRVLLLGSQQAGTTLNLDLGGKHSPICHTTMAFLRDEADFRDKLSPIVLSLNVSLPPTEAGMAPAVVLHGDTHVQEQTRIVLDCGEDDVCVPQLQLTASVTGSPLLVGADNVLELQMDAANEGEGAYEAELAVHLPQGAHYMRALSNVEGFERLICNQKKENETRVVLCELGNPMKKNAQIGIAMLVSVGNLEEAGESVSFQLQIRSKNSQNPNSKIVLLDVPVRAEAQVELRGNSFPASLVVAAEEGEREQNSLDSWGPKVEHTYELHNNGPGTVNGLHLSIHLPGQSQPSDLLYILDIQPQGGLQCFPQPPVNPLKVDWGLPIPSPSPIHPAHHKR
T1 sequence (P08514 891-1039 partner limits assumed): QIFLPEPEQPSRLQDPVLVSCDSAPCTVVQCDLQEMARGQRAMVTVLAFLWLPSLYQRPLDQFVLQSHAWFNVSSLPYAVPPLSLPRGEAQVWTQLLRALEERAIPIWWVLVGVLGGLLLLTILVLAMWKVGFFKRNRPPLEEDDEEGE
T1 sequence (P05106 27-788): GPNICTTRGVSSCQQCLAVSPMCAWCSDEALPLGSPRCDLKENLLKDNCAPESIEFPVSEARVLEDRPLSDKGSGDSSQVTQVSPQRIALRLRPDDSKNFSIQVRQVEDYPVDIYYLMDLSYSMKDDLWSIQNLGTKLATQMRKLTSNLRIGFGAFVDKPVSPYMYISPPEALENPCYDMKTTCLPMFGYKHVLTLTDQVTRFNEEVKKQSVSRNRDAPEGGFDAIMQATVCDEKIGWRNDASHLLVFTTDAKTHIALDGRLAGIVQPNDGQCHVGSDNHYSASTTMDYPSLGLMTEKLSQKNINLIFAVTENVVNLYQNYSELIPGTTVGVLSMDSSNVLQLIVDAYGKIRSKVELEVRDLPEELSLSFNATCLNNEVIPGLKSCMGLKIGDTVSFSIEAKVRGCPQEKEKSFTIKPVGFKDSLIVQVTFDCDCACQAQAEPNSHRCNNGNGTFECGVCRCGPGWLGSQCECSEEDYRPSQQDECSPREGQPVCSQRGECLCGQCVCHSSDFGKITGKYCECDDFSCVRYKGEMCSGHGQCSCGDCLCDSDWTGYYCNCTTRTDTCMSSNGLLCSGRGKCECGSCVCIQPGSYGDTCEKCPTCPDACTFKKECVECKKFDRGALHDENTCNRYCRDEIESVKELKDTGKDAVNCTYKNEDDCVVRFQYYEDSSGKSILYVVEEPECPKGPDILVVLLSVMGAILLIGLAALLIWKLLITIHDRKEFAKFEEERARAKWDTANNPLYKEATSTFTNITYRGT
The test is described as follows: Inhibition of bonding of 125I-fibrinogen to its receptor on intact, gel-filtered human platelets. The format is binding. The note with it: inhibition of 125I-fibrinogen bonding after stimulation with ADP (10 μM), read-out: K1 (μm), ADP stimulated. As to the method:
as §1, §2
A) Inhibition of bonding of fibrinogen to its receptor (glycoprotein IIb/IIIa) on intact, gel-filtered human platelets by the compounds according to the invention is tested. The Ki value of the inhibition of the bonding of ^125 I-fibrinogen after stimulation with ADP (10 μM) is stated.
Literature: J. S. Bennett and G. Vilaire, J. Clin. Invest. 64 (1979), 1393-1401

Setting [3] is: Homo sapiens, ADP stimulation, read-out: IC50 (μM), ADP-stimulated.
The mark [4] stands for this setting: Homo sapiens, thrombin stimulation, read-out: IC50 (μM), Thrombin-stimulated.
The mark [5] stands for this setting: ADP stimulation, read-out: IC50 (μM), ADP-stimulated.
Setting [6] is: thrombin stimulation, read-out: IC50 (μM), Thrombin-stimulated.

Turning to `CC(C)[C@H](NC(=O)[C@H](CC(=O)O)NC(=O)CN1C(=O)[C@H](CCCNC(=N)N)N(C)C1=O)C(=O)O` [Example 2], the figures for the IC50 in test [1] (setting [3]) and in test [1] (setting [4]) were 4.5 µM and 1.5 µM, respectively. Besides, the Ki in test [2] is 400 nM.
Regarding `CC(C)[C@H](NC(=O)[C@H](CC(=O)O)NC(=O)CN1C(=O)NC(Cc2ccc(C(=N)N)cc2)C1=O)C(=O)OCc1ccccc1` (stereo partly drawn) [Example 21, (5-(R,S)-(4-Formamidinobenzyl) -2,4-dioxo-imidazolidin-3-yl) -acetyl-L-aspartyl-L-valine benzyl ester], the IC50 in test [1] (setting [5]) came out at 0.7 µM; in test [1] (setting [6]), 0.3 µM. The Ki in test [2] was found to be 240 nM.
With `CC[C@H](C)[C@H](NC(=O)[C@H](CC(=O)O)NC(=O)CN1C(=O)NC(Cc2ccc(C(=N)N)cc2)C1=O)C(=O)O` (stereo partly drawn) [Example 12, (5-(R,S)-(4-Formamidinobenzyl)-2,4-dioxo-imidazolidin-3-yl)-acetyl-L-aspartyl-L-isoleucine], the IC50 was 0.2 µM in test [1] (setting [5]) and 0.1 µM in test [1] (setting [6]). In test [2], the Ki was 42 nM.
As to `CCCCCCCCCCCCCCCCOC(=O)[C@@H](NC(=O)[C@H](CC(=O)O)NC(=O)CN1C(=O)NC(Cc2ccc(C(=N)N)cc2)C1=O)c1ccccc1` (some centres unmarked) [Example 17], the IC50 was found to be 4.5 µM in test [1] (setting [5]) and 4 µM in test [1] (setting [6]).
In the same order, the values of `NCc1ccc(CC2NC(=O)N(CC(=O)N[C@@H](CC(=O)O)C(=O)N[C@H](C(=O)O)c3ccccc3)C2=O)cc1` (stereo partly drawn) [Example 19, (5-(4-Aminomethylbenzyl)-2,4-dioxo-imidazolidin-3-yl)-acetyl-L-aspartyl-L-phenyglycine] are 7 µM and 2.5 µM.
In the same order, the values of `CC(C)[C@H](NC(=O)[C@H](CC(=O)O)NC(=O)CN1C(=O)N[C@@H](CCCCN)C1=O)C(=O)O` [Example 3, [5-(S)-(4-Amino-butyl)-2,4-dioxoimidazolidin-3-yl]-acetyl-Asp-Val-OH] are 30 µM and 4 µM.
Regarding `N=C(N)c1ccc(CC2NC(=O)N(CC(=O)N[C@@H](CC(=O)O)C(=O)N[C@@H](CCCCN)C(=O)O)C2=O)cc1` (stereo partly drawn) [Example 13, (5-(R, S)-(4-Formamidinobenzyl)-2,4-dioxo-imidazolidin-3-yl) -acetyl-L-aspartyl-L-lysine], the figures for the IC50 in test [1] (setting [5]) and in test [1] (setting [6]) were 0.35 µM and 0.4 µM, respectively. The Ki in test [2] was found to be 42 nM.
Regarding `N=C(N)c1ccc(CC2NC(=O)N(CC(=O)NCCC(=O)O)C2=O)cc1` (racemic) [Example 6, [5-(S,R)-(4-Formamidino-benzyl) -2,4-dioxoimidazolidin-3-yl]-acetyl-β-alanine], the IC50 is 5.5 µM in test [1] (setting [5]) and 3 µM in test [1] (setting [6]). In addition, the Ki in test [2] was determined as 1910 nM.
For `N=C(N)c1ccc(CC2NC(=O)N(CC(=O)N[C@@H](CC(=O)O)C(=O)N[C@@H](Cc3c[nH]c4ccccc34)C(=O)O)C2=O)cc1` (stereo partly drawn) [Example 22, (5-(R,S)-(4-Formamidinobenzyl)-2,4-dioxo-imidazolidin-3-yl)-acetyl-L-aspartyl-L-tryptophan] the same measures were 0.8 µM, 0.25 µM and 140 nM.
For `CC(C)[C@H](NC(=O)[C@H](CC(=O)O)NC(=O)CCN1C(=O)N[C@@H](CCCCN)C1=O)C(=O)O` [Example 32], the IC50 in test [1] (setting [3]) worked out at 6 µM; in test [1] (setting [4]), 2 µM. Further, in test [2], the Ki worked out at 2710 nM.
For `NCc1ccc(C=C2NC(=O)N(CC(=O)N[C@@H](CC(=O)O)C(=O)N[C@H](C(=O)O)c3ccccc3)C2=O)cc1` [Example 15] the same measures were 0.7 µM, 0.45 µM and 280 nM.
As to `N=C(N)c1ccc(CC2NC(=O)N(CC(=O)N[C@@H](CC(=O)O)C(=O)N[C@H](C(=O)O)c3ccccc3)C2=O)cc1` (stereo partly drawn) [Example 5, [5-(S,R)-(4-Formamidino-benzyl) -2,4-dioxoimidazolidin-3-yl]-acetyl-L-aspartyl-L-phenylglycine], the IC50 in test [1] (setting [5]) amounted to 0.2 µM; in test [1] (setting [6]), 0.1 µM. Besides, the Ki in test [2] came to 22 nM.
In the same order, the values of `CN(C(=O)[C@H](CC(=O)O)NC(=O)CN1C(=O)NC(Cc2ccc(C(=N)N)cc2)C1=O)[C@H](C(=O)O)c1ccccc1` (stereo partly drawn) [Example 20, (5-(R,S)-(4-Formamidinobenzyl)-2,4-dioxo-imidazolidin-3-yl)-acetyl-L-aspartyl-(N-methyl)-L-phenylglycine] are 4.5 µM, 2.5 µM and 1590 nM.
For the compound `CC(C)[C@H](NC(=O)[C@H](CC(=O)O)NC(=O)CN1C(=O)N[C@@H](Cc2ccc(N)cc2)C1=O)C(=O)O` [Example 7], the Ki in test [2] is 2430 nM.
On to `N=C(N)c1ccc(CC2NC(=O)N(CC(=O)N[C@@H](CC(=O)O)C(=O)N[C@@H](Cc3ccccc3)C(=O)O)C2=O)cc1` (stereo partly drawn) [Example 14, (5-(R,S)-(4-Formamidinobenzyl)-2,4-dioxo-imidazolidin-3-yl)-acetyl-L-aspartyl-L-phenylalanine], for which the IC50 in test [1] (setting [5]) turned out to be 0.55 µM; in test [1] (setting [6]), 0.3 µM. Besides, the Ki in test [2] amounted to 270 nM.
Regarding `CC(C)[C@H](NC(=O)[C@H](CC(=O)O)NC(=O)CN1C(=O)N[C@@H](Cc2ccc(NC(=N)N)cc2)C1=O)C(=O)O` [Example 8], the IC50 in test [1] (setting [3]) amounted to 6 µM; in test [1] (setting [4]), 3 µM. In test [2], the Ki amounted to 710 nM.
Regarding `CC(C)[C@H](NC(=O)[C@H](CC(=O)O)NC(=O)c1cccc(N2C(=O)N[C@@H](CCCNC(=N)N)C2=O)c1)C(=O)O` [Example 11, 3-(5-(S)-(3-Guanidinopropyl)-2,4-dioxoimidazolidin-3-yl)benzoyl-L-aspartyl-L-valine], the Ki in test [2] is 1870 nM.
In the case of `C[C@@H](O)[C@H](NC(=O)[C@H](CC(=O)O)NC(=O)CN1C(=O)NC(Cc2ccc(C(=N)N)cc2)C1=O)C(=O)O` (stereo partly drawn) [Example 16, (5-(R,S)-(4-Formamidinobenzyl)-2,4-dioxo-imidazolidin-3-yl) -acetyl-L-aspartyl-L-threonine], the IC50 in test [1] (setting [5]) was 0.7 µM; in test [1] (setting [6]), 0.2 µM. In addition, the Ki in test [2] was 120 nM.
In the same order, the values of `CC(C)[C@H](NC(=O)[C@H](CC(=O)O)NC(=O)CN1C(=O)NC(Cc2ccc(C(=N)N)cc2)C1=O)C(=O)O` (stereo partly drawn) [Example 1, [5-(S,R )-(4-Formamidino-benzyl)-2,4-dioxoimidazolidin-3-yl]-acetyl-L-aspartyl-L-valine.] are 0.4 µM, 0.15 µM and 31 nM.
